Our source for the Papp and microsomal CLint values is patent US9409952B2, “Peptide-compound cyclization method” (Chugai Seiyaku Kabushiki Kaisha, priority 2011, dated 2016).

The nature of series [1]: PAMPA (parallel artificial membrane permeability assay). It counts as in vitro ADME. The note with it: PAMPA, pH 6.5. The method, boiled down:
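Artificial membrane was 10% (w/v) egg lecithin plus 0.5% (w/v) cholesterol in dodecane on a PVDF filter. A 10 mM DMSO stock was added at 0.5% (v/v) to donor buffer (50 mM MOPSO, pH 6.5, 5.0% glycocholic acid). After 18 h at 37 °C, LC/MS or LC/UV gave donor and acceptor levels for Pe.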

The nature of series [2]: Metabolic stability in human hepatic microsome. Format: in vitro ADME. The note with it: human, microsomes, pH 7.4, CL NADPH(+).

Each structure is given as a SMILES string. Positions of bridges follow the written chain, without caps; N, C: chain ends. Non-standard residues stand in square brackets, D forms with d. Residues, ends and D or L forms follow the SMILES beside them. ξ: configuration not given here. *: point of attachment. NMeF = CN[C@@H](Cc1ccccc1)C(=O)O; NMeI = CC[C@H](C)[C@H](NC)C(=O)O; NMeL = CN[C@@H](CC(C)C)C(=O)O; ξNMeF = CNC(Cc1ccccc1)C(=O)O; NMeV = CN[C@H](C(=O)O)C(C)C; NMeA = CN[C@@H](C)C(=O)O; Piperidide = C1CCN(*)CC1; Sar = CNCC(=O)O

`CC[C@H](C)[C@H]1C(=O)N[C@H](C(=O)N(C)[C@@H](Cc2ccccc2)C(=O)N(C)[C@@H](Cc2ccccc2)C(=O)N[C@@H](C)C(=O)N2CCCCC2)CC(=O)N(C)CC(=O)N(C)[C@@H](C)C(=O)N[C@@H]([C@@H](C)O)C(=O)N(C)[C@@H](C)C(=O)N(C)[C@@H](CC(C)C)C(=O)N(C)[C@@H](Cc2ccccc2)C(=O)N[C@@H](C(C)C)C(=O)N(C)[C@@H](CC(C)C)C(=O)N1C` [DP-302] ([Sar][NMeA]T[NMeA][NMeL][NMeF]V[NMeL][NMeI]D[NMeF][NMeF]A-Piperidide; lactam N-10) showed a Papp at 18 hours, 50 µM in series [1] of 18 ×10⁻⁶ cm/s. The same molecule showed a microsomal CLint at 1 uM in series [2] of 102 µL/min/mg.

For `CC(C)C[C@H]1C(=O)NCC(=O)N(C)[C@@H](Cc2ccccc2)C(=O)N(C)[C@@H](C(C)C)C(=O)N[C@@H]([C@@H](C)O)C(=O)N[C@H](C(=O)N(C)[C@@H](Cc2ccccc2)C(=O)N(C)[C@@H](Cc2ccccc2)C(=O)N[C@@H](C)C(=O)N2CCCCC2)CC(=O)N(C)CC(=O)N[C@@H](C(C)C)C(=O)N(C)[C@@H](CC(C)C)C(=O)N[C@@H](Cc2ccccc2)C(=O)N1C` [DP-303] ([Sar]V[NMeL]F[NMeL]G[NMeF][NMeV]TD[NMeF][NMeF]A-Piperidide; lactam N-10), in series [1], the Papp at 18 hours, 50 µM was determined as 1.2 ×10⁻⁶ cm/s. Further, the microsomal CLint at 1 uM in series [2] came out at 27 µL/min/mg.

In series [1], `CC(C)C[C@H]1C(=O)N[C@@H]([C@@H](C)O)C(=O)N(C)[C@@H](Cc2ccccc2)C(=O)N(C)[C@@H](CC(C)C)C(=O)NCC(=O)N(C)[C@@H](C(C)C)C(=O)N[C@@H](Cc2ccccc2)C(=O)N[C@H](C(=O)N(C)[C@@H](Cc2ccccc2)C(=O)N[C@@H](C)C(=O)N2CCCCC2)CC(=O)N(C)CC(=O)N[C@@H](C(C)C)C(=O)N1C` [DP-304] ([Sar]V[NMeL]T[NMeF][NMeL]G[NMeV]FD[NMeF]A-Piperidide; lactam N-10) had a Papp at 18 hours, 50 µM of 35 ×10⁻⁶ cm/s. Also, the microsomal CLint at 1 uM in series [2] came to 212 µL/min/mg.

`CC[C@H](C)[C@H]1C(=O)N[C@H](C(=O)N(C)[C@@H](Cc2ccccc2)C(=O)N[C@@H](C)C(=O)N2CCCCC2)CC(=O)N[C@@H](C)C(=O)N(C)[C@@H](Cc2ccccc2)C(=O)N(C)[C@@H](CC(C)C)C(=O)N[C@@H]([C@@H](C)O)C(=O)N(C)[C@@H](C)C(=O)N[C@@H](C(C)C)C(=O)N(C)[C@@H](CC(C)C)C(=O)N1C` [DP-305] (A[NMeF][NMeL]T[NMeA]V[NMeL][NMeI]D[NMeF]A-Piperidide; lactam N-9) yielded a Papp at 18 hours, 50 µM in series [1] of 35 ×10⁻⁶ cm/s. Moreover, the microsomal CLint at 1 uM in series [2] came to 700 µL/min/mg.

For `CC(C)C[C@H]1C(=O)N[C@@H](C(C)C)C(=O)N[C@H](C(=O)N(C)C(Cc2ccccc2)C(=O)N(C)[C@@H](Cc2ccccc2)C(=O)N[C@@H](C)C(=O)N2CCCCC2)CC(=O)N[C@H](C(C)C)C(=O)N(C)[C@@H](C)C(=O)N(C)[C@@H](Cc2ccccc2)C(=O)N(C)[C@@H](CC(C)C)C(=O)N[C@@H]([C@@H](C)O)C(=O)N(C)CC(=O)N1C` (stereo partly drawn) [DP-306] ([dV][NMeA][NMeF][NMeL]T[Sar][NMeL]VD[ξNMeF][NMeF]A-Piperidide; lactam N-9), the Papp at 18 hours, 50 µM in series [1] stood at 56 ×10⁻⁶ cm/s. Further, the microsomal CLint at 1 uM in series [2] stood at 63 µL/min/mg.

`CC(C)C[C@H]1C(=O)NCC(=O)N[C@H](C(=O)N(C)[C@@H](Cc2ccccc2)C(=O)N[C@@H](C)C(=O)N2CCCCC2)CC(=O)N[C@H](C)C(=O)N[C@@H]([C@@H](C)O)C(=O)N(C)[C@@H](C)C(=O)N(C)[C@@H](Cc2ccccc2)C(=O)N[C@@H](C(C)C)C(=O)N(C)[C@@H](Cc2ccccc2)C(=O)N1C` [DP-307] ([dA]T[NMeA][NMeF]V[NMeF][NMeL]GD[NMeF]A-Piperidide; lactam N-9) showed a Papp at 18 hours, 50 µM in series [1] of 22 ×10⁻⁶ cm/s. For the same molecule, the microsomal CLint at 1 uM in series [2] worked out at 125 µL/min/mg.

The Papp is a coefficient for how fast a substance crosses the barrier. Higher therefore signals ready permeation. In general, microsomal CLint refers to a measure of how fast metabolising enzymes remove a compound, apart from limits set by blood flow. Lower therefore signals slow turnover.
